≈ marks a conversion by molar mass, not a printed value.
Key:
[1] = Thermodynamic solubility test; assay type: physicochemical; conditions: thermodynamic from solid; FaSSIF pH 6.5, thermodynamic
Description: • a. Add assay buffer into compound powder to make 4 mg/mL solution. • b. Sample tubes are shaken for 1 hour (1000 rpm), then equilibrated over night at room temperature. • c. Samples are centrifuged (10 min-12000 rpm) to precipitate un-dissolved particles. • d. Supernatants are transferred to new tubes. • e. Concentrations of the supernatants after centrifugation are determined by LCMSMS detection.

[2] = tested on: IL-8 in THP-1 induced by MDP; assay: THP-1 cell assay, IL-8 ELISA after MDP; assay type: cell-based; conditions: Homo sapiens; test compounds 10 nM; THP-1, MDP induced
Description: Acute monoblastic and monocytic leukemia (THP-1) was obtained from ATCC (item NO. TIB-202™). The temperature of the sterile incubator is 37˜38° C., the osmotic pressure is 260˜320 mmol/L, the pH range is 7.2˜7.4, and the ratio of carbon dioxide gas is 5%.
Cells were seeded in 96-well plates. After an hour, cells were incubated with test compounds for 2 hours. MDP (10 μL) was added and incubated for 6 hours. The samples were centrifuged (3000 rmp/min) for 5 minutes. The concentration of IL-8 in the supernatants was detected by IL-8 ELISA.

[3] = Protein binding test (dialysis), dog; assay type: in vitro ADME; conditions: for fraction unbound at 5 h, 1 μM: dog plasma
Description: (§1) • 1. Spiking Solutions of Test and Reference Compounds • 1.1 Solution A (0.5 mM): Add 10 μL of 10 mM stock solution into 190 μL of DMSO. • 1.2 Solution B (0.02 mM): Add 8 μL of Solution A into 192 μL of 0.05 M sodium phosphate buffer. The final DMSO concentration in Solution B is 4%. • 2. Preparation of Test and Reference Compounds • 2.1 Preload a 96-well plate with 380 μL aliquots of plasma in the wells designated for plasma and buffer, respectively. • 2.2 Spike 20 μL of Solution B (0.02 mM of test and reference compounds) into the pre-loaded plasma in the 96-well plate. The final test concentration is 1 μM containing 0.2% DMSO. • 3. Dialysis Sample Loading • 3.1 Preparing plasma against buffer system (duplicate): Apply aliquots of 100 μL of blank dialysis buffer to the receiver side of dialysis chambers. Then apply aliquots of 100 μL of the plasma spiked with test and reference compounds to the donor side of the dialysis chambers. • 3.2 Preparing T0 plasma samples for initial concentrations (duplicate): • 3.2.1 Aliquot 25 μL of the plasma spiked with test and reference compounds into a 96-well sample preparation plate as T0 plasma samples • 3.2.2 Mix the aliquots with same volume of blank buffer (50:50, v/v). • 3.2.3 Quench the samples with 200 μL of acetonitrile containing internal standard (IS). • 3.3 Cover the dialysis block with a plastic lid and place the entire apparatus in a shaker (60 rpm) for 5 hours at 37° C. • 3.4 Preparing dialyzed samples after 5-hour incubation: • 3.4.1 Aliquot 25 μL from both the donor sides and receiver sides of the dialysis apparatus into new sample preparation plates and mix the aliquots with same volume of opposite matrixes (blank buffer to plasma and vice versa). • 3.4.2 Quench the samples with 200 μL acetonitrile containing internal standard (IS). Vortex all the samples (from 0 h and 5 h) at 600 rpm for 10 min followed by centrifugation at 5594 g for 15 minutes (ThermoMultifuge×3R). • 3.4.3 Transfer 50 μL of the supernatants to a new 96-well plate and mix the samples with 50 μL of Milli-Q water. Cover the sample plate and store it in a freezer (−20° C.) until LC/MS/MS analysis.

Caco-2 = Caco-2 permeability test; assay type: in vitro ADME; conditions: Caco-2
Description: (§2) • 1. Prewarm HBSS Buffer in 37° C. water bath • 2. Take compounds from −20° C., sonicate for a few minutes (no less than 1 minute) • 3. Solution preparation
(§3) For A-to-B direction: • HBSS buffer with 0.3% DMSO and 5 μM LY: add 150 μL DMSO and 50 μL LY (5 mM) into 50 ml HBSS buffer (pH7.4). • HBSS buffer with 0.1% DMSO and 5 μM LY: add 50 μL DMSO and 50 μL LY (5 mM) into 50 mL HBSS buffer (pH7.4).
(§4) For B-to-A direction: • HBSS buffer with 0.3% DMSO: add 150 μL DMSO into 50 ml HBSS buffer (pH7.4) • HBSS buffer with 0.1% DMSO: add 50 μL DMSO into 50 ml HBSS buffer (pH7.4).
(§5) Receiver Solution Buffer:
(§6) Prepare HBSS buffer with 0.4% DMSO: add 200 μL DMSO into 50 ml HBSS buffer (pH7.4).
(§7) For B-to-A direction: • Prepare HBSS buffer with 0.4% DMSO and 5 uM LY: add 200 μL DMSO and 50 μL LY (5 mM) into 50 ml HBSS buffer (pH7.4).
(§8) Take cell culture plate out of incubator, wash the cell monolayers with HBSS buffer, and then measure TEER values at Rm temperature. • 5. Centrifuge the compound solution (from step 3) at 4000 rpm for 5 min before loading to donor chambers. • 6. Add solution based on the volumes listed in the following table (make sure to take extra 100 uL of donor sample for T0 as Backup).
(§9) • 7. To determine LY concentration in the apical chamber, take 100 μL sample from apical chambers into an opaque plate for LYT0. • 8. Prewarm apical and basolateral plates at 37° C. for about 5 min, then begin transport by placing the apical plate onto basolateral plate. • 9. Keep the plates in incubator at 37° C. for 90 min • 10. Prepare 20× solution
(§10) • 11. Separate the apical plate from the basolateral plate after 90-min incubation. • 12. Take 100 μL samples from basolateral plate to an opaque plate as LYT90. • 13. Measure LY concentrations for LYT0 and LYT90 by Fluorometer (at excitation of 485 nm/emission of 535 nm). • 14. Sample preparation for LC-MS/MS: Donor or receiver samples are diluted by 0.4% DMSO HBSS, then mix with ACN with IS (Osalmid or Imipramine)

Caco-2 permeability test = assay type: in vitro ADME; conditions: human, Caco-2, pH 7.4
Description: as §2, §3, §4, §5, §6, §7, §8, §9, §10

[4] = Protein binding test (dialysis), human; assay type: in vitro ADME; conditions: for fraction unbound at 5 h, 1 μM: human plasma
Description: as §1

[5] = Protein binding test (dialysis), rat; assay type: in vitro ADME; conditions: for fraction unbound at 5 h, 1 μM: rat plasma
Description: as §1

[6] = efflux ratio, read-out: Caco-2 Permeability B-A/A-B

Compound | solubility [1] | inhibition at 0.01 µM [2] | fraction unbound at 5 h, 1 μM [3] | efflux (in words) (Caco-2) | permeability (in words) (Caco-2) | Papp A→B at 90 min (Caco-2 permeability test; A-B) | Papp B→A at 90 min (Caco-2 permeability test; B-A) | efflux ratio at 90 min (Caco-2 permeability test; [6]) | fraction unbound at 5 h, 1 μM [4] | fraction unbound at 5 h, 1 μM [5] | protein binding in dog (in words) ([3]; dog) | Papp A→B at 90 min, 2 μM (Caco-2 permeability test; A-B, test at 2 μM) | Papp B→A at 90 min, 2 μM (Caco-2 permeability test; B-A, test at 2 μM) | efflux ratio at 90 min, 2 μM (Caco-2 permeability test; efflux ratio, test at 2 μM, read-out: Caco-2 Permeability B-A/A-B) | protein binding in human (in words) ([4]; human) | protein binding in rat (in words) ([5]; rat)
COc1cc2nccc(Nc3ccc4scnc4c3)c2cc1P(C)(C)=O [A6] | 6.12 mM (≈ 2340 µg/mL) | 50% | 0.138 | no obvious efflux | high permeability | 15.2 ×10⁻⁶ cm/s | 33 ×10⁻⁶ cm/s | 2.18 | 0.124 | 0.019 | – | – | – | – | – | –
CP(C)(=O)c1cc2c(Nc3ccc4scnc4c3)ccnc2cc1OCCO [A7, (4-(benzo[d]thiazol-5-ylamino)-7-(2-hydroxyethoxy)quinolin-6-yl)dimethylphosphine oxide] | 5.31 mM (≈ 2200 µg/mL) | 25% | – | – | low | 0.5 ×10⁻⁶ cm/s | 10.2 ×10⁻⁶ cm/s | 20.5 | – | – | – | – | – | – | – | –
COCCOc1cc2nccc(Nc3ccc4scnc4c3)c2cc1P(C)(C)=O [A8] | 1.04 mM (≈ 444 µg/mL) | 51% | – | efflux substrate | favorable permeability | 11.9 ×10⁻⁶ cm/s | 35.6 ×10⁻⁶ cm/s | 2.98 | – | – | – | – | – | – | – | –
CC1(COc2cc3nccc(Nc4ccc5scnc5c4)c3cc2P(C)(C)=O)COC1 [A9] | 0.283 mM (≈ 128 µg/mL) | 55% | – | – | moderate | 7.85 ×10⁻⁶ cm/s | 46.5 ×10⁻⁶ cm/s | 5.92 | – | – | – | – | – | – | – | –
CP(C)(=O)c1cc2c(Nc3ccc4scnc4c3)ccnc2cc1O[C@H]1CCOC1 [A14] | – | – | 0.165 | – | moderate | 7 ×10⁻⁶ cm/s | 35.9 ×10⁻⁶ cm/s | 5.13 | 0.177 | 0.073 | – | – | – | – | – | –
CP(C)(=O)c1cc2c(Nc3ccc4scnc4c3)ccnc2cc1O[C@@H]1CCOC1 [A15] | – | – | 0.129 | – | moderate | 5.36 ×10⁻⁶ cm/s | 35 ×10⁻⁶ cm/s | 6.53 | 0.188 | 0.059 | – | – | – | – | – | –
CP(C)(=O)c1cc2c(Nc3ccc4scnc4c3)ccnc2cc1OC1COC1 [A16] | – | – | 0.145 | – | low | 2.16 ×10⁻⁶ cm/s | 31.1 ×10⁻⁶ cm/s | 14.4 | 0.195 | 0.069 | – | – | – | – | – | –
CP(C)(=O)c1cc2c(Nc3ccc4scnc4c3)ccnc2cc1OC(F)(F)F [A24] | – | – | 0.01 | no obvious efflux | high permeability | – | – | – | 0.013 | 0.001 | high protein binding | 16.9 ×10⁻⁶ cm/s | 26.6 ×10⁻⁶ cm/s | 1.58 | high protein binding | high protein binding

Reference: patent US20240190904A1, “Heteroaryl compounds as inhibitors of RIP2 kinase, composition and application thereof” (Accro Bioscience (HK) Limited, priority 2021, published 2024)
